Measured values reported in US9982045B2, “Anti-CDH6 antibody drug conjugates” (Novartis AG, priority 2014, dated 2018).

Key:
[1] = test system: CDH6 expressing primary (patient derived) ovarian tumors; assay: Patient-derived primary ovarian tumor xenograft mouse model (Example 18); format: in vivo, nude mice; conditions: 5 mg/kg i.v. Q14D
Experimental: Mice were enrolled in the study 48 days post implant with a mean tumor volume of 178 mm^3. […] All groups were dosed at 5 mg/kg.

[2] = test system: CDH6 expressing cell lines compared to non-expressing cell lines; assay: In vitro cellular activity on panel of CDH6 expressing and non-expressing cell lines; conditions: OVCAR3 and OVCAR8-CDH6+ compared to OVCAR8; FIG. 12

## NOV0712: anti-CDH6 human IgG1 from HuCAL PLATINUM phage display; binds CDH6 EC5; sequence in Table 5
[1]
  Anti-tumor activity (tumor volume): no inhibitory effect upon tumor growth
[2]
  Cellular activity (inhibition of proliferation): No cellular activity was observed
